The source of these data is patent publication US20120149026A1, “INSULIN RESISTANCE MARKER” (SHIMADZU CORPORATION, priority 2009, published 2012).

Format in all cases: cell-based, mouse
One assay deals with proepithelin (aa297-309). The assay can be described thus: Expression variation analysis of proepithelin protein by NBS method in insulin resistance-induced adipocytes. Conditions: matured 3T3-L1 adipocytes; 4 ng/mL TNFα for four days or 20 nM dexamethazone for eight days; p-value <0.05. The procedure: Mouse 3T3-L1 cells (ATCC No. CCL-92.1.) were added with Dulbecco's modified Eagle's medium—low glucose (Wako Pure Chemical Industries, Ltd.), 10% bovine serum (GIBCO BRL), and a penicillin/streptomycin solution (GIBCO BRL), and cultured at 37° C. in 5% carbon dioxide.
After reaching confluent, the cells were further cultured for two days. Then the medium was replaced by a differentiation inducing medium. As the differentiation inducing medium, Dulbecco's modified Eagle's medium—high glucose (Wako Pure Chemical Industries, Ltd.) added with 10% fetal bovine serum, a penicillin/streptomycin solution (GIBCO BRL), 0.5 mM 1-methyl-3-isobutylxanthine, 1 μM dexamethazone, and 5 μg/mL insulin was used.
After three days, the medium was replaced by Dulbecco's modified Eagle's medium—high glucose (Wako Pure Chemical Industries, Ltd.), 10% fetal bovine serum, a penicillin/streptomycin solution (GIBCO BRL), and 5 μg/mL insulin, and cultured for two days. […]
For the obtained digests, a treatment was conducted according to the protocol of the NBS labeling kit, and the NBS-labeled peptide was concentrated. […] Comparative quantification analysis between 12C-NBS-labeled peptide and 13C-NBS-labeled peptide was conducted from the results obtained by automatic analysis of MALDI-TOF MS (AXIMA-CFR Plus; SHIMADZU CORPORATION) by using pair peak analyzing software (TWIP). […]

In the next assay the test system is proepithelin protein. The assay can be described thus: Analysis of proepithelin protein by Western blotting in insulin resistance-induced adipocytes. The settings on record: matured 3T3-L1 adipocytes; for expression amount of proepithelin protein relative to GADPH, increase versus control: 4 ng/mL TNFα for four days or 20 nM dexamethazone for eight days, p-value <0.05. The procedure: Using the matured adipocyte at the eighth or later day after the differentiation inducing treatment, the cells were cultured in an adipocyte maintenance medium added with 20 nM dexamethazone for eight days to induce insulin resistance, and an adipocyte in which insulin resistance was induced by dexamethazone was obtained. On the other hand, using the matured adipocyte at the eighth or later day after the differentiation inducing treatment, the cells were cultured for four days in an adipocyte maintenance medium added with 4 ng/mL TNFα to induce insulin resistance, and an adipocyte in which insulin resistance was induced by TNFα was obtained.
A matured adipocyte in which insulin resistance was induced by the method of Reference Example 2 was solubilized in a TNE buffer (1% (w/w) Nonidet P-40, 150 mM sodium chloride, 20 mM Tris-hydrochloride (pH 7.4), 2 mM EDTA, 10 μg/mL leupeptin, 10 μg/mL aprotinine, 5 mM mercaptoethanol, 1 mM: PMSF, 1 mM Na3VO4, 10 μM sodium molybdate, and 50 mM sodium fluoride), and a protein was extracted. The extracted protein was separated by SDS-polyacrylamide gel electrophoresis (SDS-PAGE), and then transferred to a polyvinylidene fluoride (PVDF) membrane or a nitrocellulose membrane. A goat anti-proepithelin antibody (R&D Systems) was used as a primary antibody, a rabbit anti-goat IgG HRP-labeled antibody (ZYMED) was used as a secondary antibody, and ECL Blotting Detection Reagents (GE Healthcare) were used for detection of an HRP-labeled antibody.
The result obtained in this example (analytical result of a proepithelin protein by the Western blotting method) is shown in FIG. 2. In FIG. 2A, the vertical axis represents a relative value of an expression amount of a proepithelin protein, relative to an expression amount of a house keeping protein GADPH, and for each of a control (Control), the adipocyte in which insulin resistance was induced by TNFα (TNFα), and the adipocyte in which insulin resistance was induced by dexamethazone (Dex), the relative value is shown (mean value±standard deviation (mean±S.D.), n=4, p-value: **<0.05). […]
In general terms: A western blot detects proteins with antibodies after separation by electrophoresis.

For a further assay, the system named is pAkt-Ser473. The assay can be described thus: Effect of proepithelin protein on insulin signaling (Akt phosphorylation, Western blotting). The settings on record: matured 3T3-L1 adipocytes; proepithelin 10, 50, 100, 200 nM, cultured for 30 minutes, with or without 100 nM insulin; FIG. 6. The procedure: A matured adipocyte prepared according to the method of Reference Example 1 was added with 100 nM insulin and a proepithelin protein (AdipoGen, Inc.) and cultured for 30 minutes, or added with 100 nM insulin without addition of proepithelin protein and cultured for 30 minutes to prepare an adipocyte (+100 nM Insulin) stimulated by insulin. When the proepithelin protein was added, concentrations of the proepithelin protein were 10 nM, 50 nM, 100 nM, and 200 nM.
The obtained adipocyte stimulated by insulin was solubilized in an RIPA buffer {1% (W/w) Triton X-100, 1% sodium deoxycholate, 0.1% sodium dodecylsulfate, 150 mM sodium chloride, 20 mM Tris-hydrochloride (pH7.4), 2 mM EDTA, 10 μg/mL leupeptin, 10 μg/mL aprotinin, 5 mM mercaptoethanol, 1 mM PMSF, 1 mM Na3VO4, 10 μM sodium molybdate, 50 mM sodium fluoride}, and proteins were extracted.
The extracted proteins were subjected to the Western blotting method. Concretely, following separation by SDS-polyacrylamide gel electrophoresis (SOS-PAGE), the protein was transferred to a polyvinylidene fluoride (PVDF) membrane or a nitrocellulose membrane. […]

Another assay has as its system phosphorylated Akt. The assay is described as follows: Insulin signaling-suppressing action by constant presence of proepithelin protein (Akt phosphorylation, Western blotting). The settings on record: matured 3T3-L1 adipocytes; proepithelin 50, 100, 200 nM for 6 hours, then 100 nM insulin for 30 minutes; FIG. 7. The procedure:
A matured adipocyte prepared according to the method of Reference Example 1 was added with a proepithelin protein (AdipoGen, Inc.) and incubated for 6 hours, and then added with 100 nM insulin and cultured for 30 minutes, or added with 100 nM insulin without addition of a proepithelin protein, and cultured for 30 minutes, to prepare an adipocytes stimulated by insulin (+100 nM Insulin). When the proepithelin protein was added, concentrations of the proepithelin protein were set at 50 nM, 100 nM, and 200 nM.
A matured adipocyte prepared according to the method of Reference Example 1 was added with a proepithelin protein (AdipoGen, Inc.) and cultured for 6 hours, or cultured for 30 minutes without addition of both insulin and a proepithelin protein, to prepare an adipocyte not stimulated with insulin (−Insulin). When the proepithelin protein was added, concentrations of the proepithelin protein were set at 50 nM, 100 nM, and 200 nM.
For each of the adipocyte stimulated by insulin (+100 nM Insulin) and the adipocyte not stimulated by insulin (−Insulin) obtained in the manner as described above, protein extraction and Western blotting were conducted in the same manner as in Example 6.

Regarding tumor necrosis factor α [TNFα], in the assay on proepithelin (aa297-309), the “relative intensity of proepithelin (aa297-309) NBS-labeled peptide, insulin resistance adipocyte relative to normal adipocyte” value was 1.66 times. In the assay with proepithelin protein, the “expression amount of proepithelin protein relative to GADPH, increase versus control” value is recorded as 1.83 times. In addition, in the assay with proepithelin protein (concentrations of TNFα (ng/ml) and dexamethazone (nM) changed, FIG. 3), the “upregulation of proepithelin protein with varied inducer concentration” value is given as “dependent on the concentration”.
Consider `C[C@@H]1C[C@H]2[C@@H]3CCC4=CC(=O)C=C[C@]4(C)[C@@]3(F)[C@@H](O)C[C@]2(C)[C@@]1(O)C(=O)CO` [dexamethazone], for which the “relative intensity of proepithelin (aa297-309) NBS-labeled peptide, insulin resistance adipocyte relative to normal adipocyte” value in the assay with proepithelin (aa297-309) was 3.01 times. Moreover, in the assay with proepithelin protein, the “expression amount of proepithelin protein relative to GADPH, increase versus control” value is 1.95 times.

B1: proepithelin protein: epithelin precursor protein having seven kinds of epithelin domains; purchased from AdipoGen, Inc. (protein)
chain: MWTLVSWVALTAGLVAGTRCPDGQFCPVACCLDPGGASYSCCRPLLDKWPTTLSRHLGGPCQVDAHCSAGHSCIFTVSGTSSCCPFPEAVACGDGHHCCPRGFHCSADGRSCFQRSGNNSVGAIQCPDSQFECPDFSTCCVMVDGSWGCCPMPQASCCEDRVHCCPHGAFCDLVHTRCITPTGTHPLAKKLPAQRTNRAVALSSSVMCPDARSRCPDGSTCCELPSGKYGCCPMPNATCCSDHLHCCPQDTVCDLIQSKCLSKENATTDLLTKLPAHTVGDVKCDMEVSCPDGYTCCRLQSGAWGCCPFTQAVCCEDHIHCCPAGFTCDTQKGTCEQGPHQVPWMEKAPAHLSLPDPQALKRDVPCDNVSSCPSSDTCCQLTSGEWGCCPIPEAVCCSDHQHCCPQGYTCVAEGQCQRGSEIVAGLEKMPARRASLSHPRDIGCDQHTSCPVGQTCCPSLGGSWACCQLPHAVCCEDRQHCCPAGYTCNVKARSCEKEVVSAQPATFLARSPHVGVKDVECGEGHFCHDNQTCCRDNRQGWACCPYRQGVCCADRRHCCPAGFRCAARGTKCLRREAPRWDAPLRDPALRQLL
modifications: human
In the case of B1, the “phosphorylation level at 473th serine in the Akt protein” value in the assay on pAkt-Ser473 was “increased with the concentration of added proepithelin”. Also, in the assay on phosphorylated Akt, the “phosphorylation level of an Akt protein after preliminary treatment” value was “decreased”.
